Test results: paper PMC6440464 (PeerJ, 2019)
“And” between values parts separate entries of the source, which are not always exact repeats. Identical values can stand only once.

Assay: Stability of the analytes in rat plasma QC samples at different storage conditions
Assay type: in vitro ADME
Conditions: for Post-preparation stability (4℃ for 24 h) Measured Conc.: extracted plasma samples in auto sampler rack; for Post-preparation stability (4℃ for 24 h) Measured Conc. / Free-thaw stability (3 free-thaw cycles) Measured Conc. / Long-term stability (-80℃ for 15 d) Measured Conc. / Short-term stability (25℃ for 12 h) Measured Conc.: n=5; for Free-thaw stability, Test Conc., AV / Free-thaw stability, Test Conc. / Post-preparation stability, Test Conc., AV / Post-preparation stability, Test Conc. / Short-term stability, Test Conc., AV / Short-term stability, Test Conc. / Long-term stability, Test Conc., AV / Long-term stability, Test Conc.: plasma; for Free-thaw stability, Test Conc., AV / Free-thaw stability, Test Conc.: 3 free-thaw cycles; for Free-thaw stability, Test Conc., AV / Post-preparation stability, Test Conc., AV / Short-term stability, Test Conc., AV / Long-term stability, Test Conc., AV: AV of 5 replicates; for Free-thaw stability, Test Conc. / Post-preparation stability, Test Conc. / Short-term stability, Test Conc. / Long-term stability, Test Conc.: single replicates NO.1-NO.5, listed as Isoquercitrin (IQ); for Post-preparation stability, Test Conc., AV / Post-preparation stability, Test Conc.: 4℃ for 24 h; for Short-term stability, Test Conc., AV / Short-term stability, Test Conc.: 25℃ for 12 h; for Long-term stability, Test Conc., AV / Long-term stability, Test Conc.: -80℃ for 15 d; for Free-thaw stability (3 free-thaw cycles) Measured Conc. / Long-term stability (-80℃ for 15 d) Measured Conc. / Short-term stability (25℃ for 12 h) Measured Conc.: rat plasma
Protocol: The stabilities of Qr, IQ, and QG in plasma were assessed by analyzing QC samples at different storage conditions. The stabilities of three flavonoids in plasma were studied by analyzing three concentration levels of QC samples (n = 5) at room temperature (25 °C) for 12 h, at long-term storage (−80 °C for 15 days), after three freeze (−80 °C) and thaw (room temperature) cycles, and at auto sampler rack storage (4 °C for 24 h).

[1] = high QC, nominal 8400.0 (Qr), 976.0 (IQ), 10000.0 (QG) ng/mL
[2] = low QC, nominal 65.6 (Qr), 48.8 (IQ), 100.0 (QG) ng/mL
[3] = medium QC, nominal 525.0 (Qr), 244.0 (IQ), 1000.0 (QG) ng/mL

Structure (SMILES): O=c1c(O[C@@H]2O[C@H](CO)[C@@H](O)[C@H](O)[C@H]2O)c(-c2ccc(O)c(O)c2)oc2cc(O)cc(O)c12 [IQ, Isoquercitrin]
- Post-preparation stability (4℃ for 24 h) Measured Conc. [1]: 937.6 ± 55.4 ng/mL
- Post-preparation stability (4℃ for 24 h) Measured Conc. [2]: 45.3 ± 1.4 ng/mL
- Post-preparation stability (4℃ for 24 h) Measured Conc.: 255.6 ± 16.0 ng/mL
- Free-thaw stability, Test Conc., AV (nominal Conc. 48.80 ng/mL): 50.35 ng/mL
- Free-thaw stability, Test Conc. (nominal Conc. 48.80 ng/mL): 49.95 ng/mL and 49.90 ng/mL and 50.70 ng/mL and 48.08 ng/mL and 53.12 ng/mL
- Free-thaw stability, Test Conc., AV (nominal Conc. 244.00 ng/mL): 242.47 ng/mL
- Free-thaw stability, Test Conc. (nominal Conc. 244.00 ng/mL): 230.75 ng/mL and 211.89 ng/mL and 256.83 ng/mL and 252.00 ng/mL and 260.86 ng/mL
- Free-thaw stability, Test Conc., AV (nominal Conc. 976.00 ng/mL): 1028.98 ng/mL
- Free-thaw stability, Test Conc. (nominal Conc. 976.00 ng/mL): 934.23 ng/mL and 1056.62 ng/mL and 1064.04 ng/mL and 1091.46 ng/mL and 998.55 ng/mL
- Post-preparation stability, Test Conc., AV (nominal Conc. 48.80 ng/mL): 45.28 ng/mL
- Post-preparation stability, Test Conc. (nominal Conc. 48.80 ng/mL): 45.29 ng/mL and 43.89 ng/mL and 47.57 ng/mL and 44.33 ng/mL and 45.34 ng/mL
- Post-preparation stability, Test Conc., AV (nominal Conc. 244.00 ng/mL): 255.64 ng/mL
- Post-preparation stability, Test Conc. (nominal Conc. 244.00 ng/mL): 246.59 ng/mL and 233.24 ng/mL and 257.98 ng/mL and 268.81 ng/mL and 271.60 ng/mL
- Post-preparation stability, Test Conc., AV (nominal Conc. 976.00 ng/mL): 937.62 ng/mL
- Post-preparation stability, Test Conc. (nominal Conc. 976.00 ng/mL): 857.22 ng/mL and 1007.33 ng/mL and 922.61 ng/mL and 936.47 ng/mL and 964.48 ng/mL
- Short-term stability, Test Conc., AV (nominal Conc. 48.80 ng/mL): 51.25 ng/mL
- Short-term stability, Test Conc. (nominal Conc. 48.80 ng/mL): 51.42 ng/mL and 50.11 ng/mL and 53.70 ng/mL and 49.73 ng/mL and 51.28 ng/mL
- Short-term stability, Test Conc., AV (nominal Conc. 244.00 ng/mL): 228.97 ng/mL
- Short-term stability, Test Conc. (nominal Conc. 244.00 ng/mL): 224.99 ng/mL and 229.24 ng/mL and 227.58 ng/mL and 250.98 ng/mL and 212.08 ng/mL
- Short-term stability, Test Conc., AV (nominal Conc. 976.00 ng/mL): 902.68 ng/mL
- Short-term stability, Test Conc. (nominal Conc. 976.00 ng/mL): 885.52 ng/mL and 865.13 ng/mL and 936.37 ng/mL and 947.50 ng/mL and 878.89 ng/mL
- Long-term stability, Test Conc., AV (nominal Conc. 48.80 ng/mL): 43.53 ng/mL
- Long-term stability, Test Conc. (nominal Conc. 48.80 ng/mL): 40.64 ng/mL and 40.98 ng/mL and 46.59 ng/mL and 45.84 ng/mL and 43.59 ng/mL
- Long-term stability, Test Conc., AV (nominal Conc. 244.00 ng/mL): 226.97 ng/mL
- Long-term stability, Test Conc. (nominal Conc. 244.00 ng/mL): 232.85 ng/mL and 226.55 ng/mL and 237.44 ng/mL and 224.60 ng/mL and 213.40 ng/mL
- Long-term stability, Test Conc., AV (nominal Conc. 976.00 ng/mL): 947.77 ng/mL
- Long-term stability, Test Conc. (nominal Conc. 976.00 ng/mL): 1047.44 ng/mL and 988.88 ng/mL and 924.76 ng/mL and 931.40 ng/mL and 846.39 ng/mL
- Free-thaw stability (3 free-thaw cycles) Measured Conc. [1]: 1029.0 ± 62.9 ng/mL
- Long-term stability (-80℃ for 15 d) Measured Conc. [1]: 947.8 ± 75.3 ng/mL
- Short-term stability (25℃ for 12 h) Measured Conc. [1]: 902.7 ± 36.8 ng/mL
- Free-thaw stability (3 free-thaw cycles) Measured Conc. [2]: 50.4 ± 1.8 ng/mL
- Long-term stability (-80℃ for 15 d) Measured Conc. [2]: 43.5 ± 2.7 ng/mL
- Short-term stability (25℃ for 12 h) Measured Conc. [2]: 51.3 ± 1.6 ng/mL
- Free-thaw stability (3 free-thaw cycles) Measured Conc. [3]: 242.5 ± 20.7 ng/mL
- Long-term stability (-80℃ for 15 d) Measured Conc. [3]: 227.0 ± 9.1 ng/mL
- Short-term stability (25℃ for 12 h) Measured Conc. [3]: 229.0 ± 14.0 ng/mL
